Our source for the IC50 and IC90 values is ChEMBL document CHEMBL2311395, “One pot solvent free synthesis and in vitro antitubercular screening of 3-Aracylphthalides against Mycobacterium tuberculosis” (Bioorg Med Chem Lett, 2013).

In brackets after ≈: the same amount, converted by molar mass.

The test has as its system Mycobacterium tuberculosis. The test can be described thus: Antitubercular activity against Mycobacterium tuberculosis H37Ra ATCC 25177 assessed as growth inhibition after 8 days by XTT reduction menadione assay. The note with it: H37Ra ATCC 25177, 192 h. It counts as functional, organism-based. In general terms: Tetrazolium dyes change colour on reduction, which living cells bring about.

For orientation: IC50 means the concentration at which inhibition is half-maximal. The IC90 is the concentration at which the effect reaches the 90% level.

`O=C(CC1OC(=O)c2ccccc21)c1cccs1` (centres undefined): the half-inhibitory concentration (IC50) was 1.24 µg/mL (≈ 4.8 µM).
Turning to `NNC(=O)c1ccncc1` [ISONIAZID], the IC90 was 0.125 µg/mL (≈ 0.911 µM).
Take `O=C(CC1OC(=O)c2ccccc21)c1ccco1` (centres undefined): the IC50 turned out to be 0.81 µg/mL (≈ 3.34 µM).
For `O=C(CC1OC(=O)c2ccccc21)c1ccc(Cl)cc1` (centres undefined), the half-inhibitory concentration (IC50) worked out at 0.97 µg/mL (≈ 3.38 µM).
